# In US20150011528A1, “PHENYLIMIDE-CONTAINING BENZOTHIAZOLE DERIVATIVE OF ITS SALT AND PHARMACEUTICAL COMPOSITION COMPRISING THE SAME” (YUHAN CORPORATION, priority 2011, published 2015):
# Test system: A549 cells
# Assay: Cell Migration Assay (transwell, laminin)
# Assay type: cell-based
# Details: Homo sapiens, laminin 10 μg/mL in lower well, test compounds 0.39˜100 μM, 6 hours at 37° C.
# Method: Cell migration was measured with a 24-well transwell having a polycarbonate membrane (8.0 μm pore size, Costar) at the bottom of the upper chamber. Each lower well was treated with laminin (10 μg/mL) and test compounds (0.39˜100 μM) along with a serum-free RPMI1640 medium. A549 cells (Korean Cell Line Bank) were suspended in a serum-free RPMI1640 medium at a concentration of 1×10^6 cells/mL and then the test compounds were added thereto at the indicated concentrations. Each resulting solution (100 μL) was added to the upper chamber. The cells were cultured at 37° C. for 6 hours in a CO2 incubator. The upper chamber was taken out and then the cells were fixed with PBS containing 70% methyl alcohol for 10 minutes, followed by washing with PBS twice. The cells were stained with hematoxylin (Sigma) for 10 minutes and then washed with distilled water. The non-migrated cells were removed from the upper portion of the polycarbonate membrane with a cotton swab. The membranes were excised and separated from the chamber, and then mounted to a slide using a gel mount reagent (Biomeda, USA). The migrated cells (attached to the lower face of the membrane) were counted at three randomly selected sites under a microscope (×20). The cell counting was performed with the Image J program. From the counted cell numbers, each IC50 value was calculated by non-linear regression curve fit using the “GraphPad Prism” program.
# The cells are pulled by laminin residing in the lower chamber and then passed through the polycarbonate membrane, so as to attach to the lower face of the membrane.
row,Compound,IC50 [µM]
1,"CC(C(=O)O)n1c2c(sc1=NC(=O)c1cccc(C(F)(F)F)c1)CCCC2 (stereo not drawn) [Example 295, 2-(2-(3-(trifluoromethyl)benzoylimino)-4,5,6,7-tetrahydrobenzo[d]thiazol-3(2H)-yl)propionic acid]",60
2,"O=C(O)Cn1c(=NC(=O)c2cccc(Cl)c2)sc2c(Cl)cccc21 [Example 358, 2-(7-chloro-2-((3-chlorobenzoyl)imino)benzo[d]thiazol-3(2H)-yl)acetic acid]",29.4
3,"O=C(O)Cn1c(=NC(=O)c2cccc(Cl)c2)sc2c(F)cccc21 [Example 347, 2-(2-((3-chlorobenzoyl)imino)-7-fluorobenzo[d]thiazol-3(2H)-yl)acetic acid]",109
4,"COc1ccc2c(c1)sc(=NC(=O)c1cccc(C(F)(F)F)c1)n2C(C)C(=O)O (stereo not drawn) [Example 189, 2-(6-methoxy-2-((3-(trifluoromethyl)benzoyl)imino)benzo[d]thiazol-3(2H)-yl)propionic acid]",87
5,"CCOc1ccc2c(c1)sc(=NC(=O)c1cccc(C(F)(F)F)c1)n2C(C)C(=O)O (stereo not drawn) [Example 192, 2-(6-ethoxy-2-((3-(trifluoromethyl)benzoyl)imino)benzo[d]thiazol-3(2H)-yl)propionic acid]",33
6,"CC(C(=O)O)n1c(=NC(=O)c2cccc(C(F)(F)F)c2)sc2c(F)c(F)c(F)cc21 (stereo not drawn) [Example 380, 2-(5,6,7-trifluoro-2-((3-(trifluoromethyl)benzoyl)imino)benzo[d]thiazol-3(2H)-yl)propionic acid]",36.2
7,"CC(C(=O)O)n1c(=NC(=O)c2cccc(Cl)c2)sc2c(C(F)(F)F)cccc21 (stereo not drawn) [Example 270, 2-(2-(3-chlorobenzoylimino)-7-(trifluoromethyl)benzo[d]thiazol-3(2H)-yl)propionic acid]",1
8,"COc1ccc2c(c1)sc(=NC(=O)c1cccc(Cl)c1)n2C(C)C(=O)O (stereo not drawn) [Example 53, 2-{2-[(3-chlorobenzoyl)imino]-6-methoxybenzo[d]thiazol-3(2H)-yl}propionic acid]",59
9,"CC(C(=O)O)n1c(=NC(=O)c2cccc(Cl)c2)sc2c(F)cccc21 (stereo not drawn) [Example 373, 2-(2-((3-chlorobenzoyl)imino)-7-fluorobenzo[d]thiazol-3(2H)-yl)propionic acid]",92.4
10,"Cc1ccc2c(c1)sc(=NC(=O)c1cccc(C(F)(F)F)c1)n2C(C)C(=O)O (stereo not drawn) [Example 195, 2-(6-methyl-2-((3-(trifluoromethyl)benzoyl)imino)benzo[d]thiazol-3(2H)-yl)propionic acid]",87
11,"CC(C(=O)O)n1c(=NC(=O)c2cccc(C(F)(F)F)c2)sc2c(F)cccc21 (stereo not drawn) [Example 346, 2-(7-fluoro-2-((3-(trifluoromethyl)benzoyl)imino)benzo[d]thiazol-3(2H)-yl)propionic acid]",124
12,"Cc1ccc(C(=O)N=c2sc3c(F)cc(F)cc3n2C(C)C(=O)O)cc1 (stereo not drawn) [Example 455, 2-(5,7-difluoro-2-((4-methylbenzoyl)imino)benzo[d]thiazol-3(2H)-yl)propionic acid]",80
13,"COc1cccc2sc(=NC(=O)c3cccc(Cl)c3)n(C(C)C(=O)O)c12 (stereo not drawn) [Example 282, 2-(2-(3-chlorobenzoylimino)-4-methoxybenzo[d]thiazol-3(2H)-yl)propionic acid]",25
14,"CCC(C(=O)O)n1c(=NC(=O)c2cc(Cl)cc(Cl)c2)sc2cc(F)c(F)cc21 (stereo not drawn) [Example 468, 2-(2-((3,5-dichlorobenzoyl)imino)-5,6-difluorobenzo[d]thiazol-3(2H)-yl)butanoic acid]",41
15,"Cc1cc2sc(=NC(=O)c3cccc(Cl)c3)n(C(C)C(=O)O)c2cc1C (stereo not drawn) [Example 212, 2-(2-((3-chlorobenzoyl)imino)-5,6-dimethylbenzo[d]thiazol-3(2H)-yl)propionic acid]",33
16,"CCC(C(=O)O)n1c(=NC(=O)c2ccc(C)cc2)sc2cc(OC(F)(F)F)ccc21 (stereo not drawn) [Example 14, 2-{2-[(4-methylbenzoyl)imino]-6-(trifluoromethoxy)benzo[d]thiazol-3(2H)-yl]butanoic acid]",21.5
17,"COc1ccc2c(sc(=NC(=O)c3cccc(Cl)c3)n2CC(=O)O)c1F [Example 396, 2-(2-((3-chlorobenzoyl)imino)-7-fluoro-6-methoxybenzo[d]thiazol-3(2H)-yl)acetic acid]",43
18,"Cc1ccc(C(=O)N=c2sc3c(C)cccc3n2C(C)C(=O)O)cc1 (stereo not drawn) [Example 103, 2-[7-methyl-2-(4-methylbenzoylimino)benzo[d]thiazol-3(2H)-yl]propionic acid]",28
19,"CCC(C(=O)O)n1c(=NC(=O)c2cccc(Cl)c2)sc2c(F)c(F)c(F)cc21 (stereo not drawn) [Example 417, 2-(2-((3-chlorobenzoyl)imino)-5,6,7-trifluorobenzo[d]thiazol-3(2H)-yl)butanoic acid]",22
20,"Cc1cccc2c1sc(=NC(=O)c1cccc(C(F)(F)F)c1)n2C(C)C(=O)O (stereo not drawn) [Example 314, 2-(7-methyl-2-(3-(trifluoromethyl)benzoylimino)benzo[d]thiazol-3(2H)-yl)propionic acid]",46
21,"CC(C(=O)O)n1c(=NC(=O)c2ccc(F)c(Cl)c2)sc2cc(F)c(F)cc21 (stereo not drawn) [Example 466, 2-(2-((3-chloro-4-fluorobenzoyl)imino)-5,6-difluorobenzo[d]thiazol-3(2H)-yl)propionic acid]",49

# Continued, values first:
row,IC50 [µM],Compound
1,31.1,"CCC(C(=O)O)n1c(=NC(=O)c2ccc(C)cc2)sc2cc(F)ccc21 (stereo not drawn) [Example 153, 2-[6-fluoro-2-(4-methylbenzoylimino)benzo[d]thiazol-3(2H)-yl]butanoic acid]"
2,26.9,"CCC(C(=O)O)n1c(=NC(=O)c2ccc(OC)cc2)sc2ccccc21 (stereo not drawn) [Example 60, 2-[2-(4-methoxybenzoylimino)benzo[d]thiazol-3(2H)-yl]butanoic acid]"
3,31.6,"CCC(C(=O)O)n1c(=NC(=O)c2ccc(C)cc2)sc2ccc(F)cc21 (stereo not drawn) [Example 90, 2-[5-fluoro-2-(4-methylbenzoylimino)benzo[d]thiazol-3(2H)-yl]butanoic acid]"
4,11.8,"CCC(C(=O)O)n1c(=NC(=O)c2ccc(C)cc2)sc2cc(C)c(F)cc21 (stereo not drawn) [Example 16, 2-{5-fluoro-6-methyl-2-[(4-methylbenzoyl)imino]benzo[d]thiazol-3(2H)-yl}butanoic acid]"
5,43,"CCC(C(=O)O)n1c(=NC(=O)c2ccc(C)cc2)sc2ccc(C)cc21 (stereo not drawn) [Example 100, 2-[5-methyl-2-(4-methylbenzoylimino)benzo[d]thiazol-3(2H)-yl]butanoic acid]"
6,5.7,"CCCCCCC(C(=O)O)n1c(=NC(=O)c2ccc(C)cc2)sc2ccccc21 (stereo not drawn) [Example 147, 2-[2-(4-methylbenzoylimino)benzo[d]thiazol-3(2H)-yl]octanoic acid]"
7,26.5,"CCC(C(=O)O)n1c(=NC(=O)c2ccc(C)cc2)sc2cc(C)c(C)cc21 (stereo not drawn) [Example 6, 2-{5,6-dimethyl-2-[(4-methylbenzoyl)imino]benzo[d]thiazol-3(2H)-yl}butanoic acid]"
8,23.7,"CCC(C(=O)O)n1c(=NC(=O)c2ccc(C)cc2)sc2cc([N+](=O)[O-])ccc21 (stereo not drawn) [Example 23, 2-{2-[(4-methylbenzoyl)imino]-6-nitrobenzo[d]thiazol-3(2H)-yl}butanoic acid]"
9,101,"CC(C(=O)O)n1c(=NC(=O)c2ccc(C(F)(F)F)cc2)sc2ccccc21 (stereo not drawn) [Example 186, 2-(2-(4-(trifluoromethyl)benzoylimino)benzo[d]thiazol-3(2H)-yl)propionic acid]"
10,40.1,"O=C(O)Cn1c(=NC(=O)c2cccc(Cl)c2)sc2ccccc21 [Example 123, 2-[2-(3-chlorobenzoylimino)benzo[d]thiazol-3(2H)-yl]acetic acid]"
11,16.5,"CCC(C(=O)O)n1c(=NC(=O)c2cccc(Cl)c2)sc2cc(C(F)(F)F)ccc21 (stereo not drawn) [Example 173, 2-(2-((3-chlorobenzoyl)imino)-6-(trifluoromethyl)benzo[d]thiazol-3(2H)-yl)butanoic acid]"
12,18,"CCOc1ccc2c(sc(=NC(=O)c3cccc(Cl)c3)n2C(CC)C(=O)O)c1F (stereo not drawn) [Example 427, 2-(2-((3-chlorobenzoyl)imino)-6-ethoxy-7-fluorobenzo[d]thiazol-3(2H)-yl)butanoic acid]"
13,16,"CCC(C(=O)O)n1c(=NC(=O)c2cccc(Cl)c2)sc2cc3c(cc21)OCO3 (stereo not drawn) [Example 240, 2-(6-((3-chlorobenzoyl)imino)-[1,3]dioxolo[4′,5′:4,5]benzo[1,2-d]thiazol-7(6H)-yl)butanoic acid]"
14,43,"CCC(C(=O)O)n1c(=NC(=O)c2cccc(Cl)c2)sc2c(F)cc(F)cc21 (stereo not drawn) [Example 462, 2-(2-((3-chlorobenzoyl)imino)-5,7-difluorobenzo[d]thiazol-3(2H)-yl)butanoic acid]"
15,12.3,"CCC(C(=O)O)n1c(=NC(=O)c2cccc(Br)c2)sc2ccccc21 (stereo not drawn) [Example 83, 2-[2-(3-bromobenzoylimino)benzo[d]thiazol-3(2H)-yl]butanoic acid]"

# Same assay, conditions: laminin 10 μg/mL in lower well, test compounds 0.39˜100 μM, 6 hours at 37° C.
row,IC50 [µM],Compound
1,32,CCC(C(=O)O)n1c(=NC(=O)c2ccc(F)c(C(F)(F)F)c2)sc2cc(F)c(F)cc21 (stereo not drawn) [Example 471]
2,66,CCC(C(=O)O)n1c(=NC(=O)c2cc(F)cc(C(F)(F)F)c2)sc2cc(F)c(F)cc21 (stereo not drawn) [Example 469]

row,Compound,IC50 [µM]
1,Cc1ccc(C(=O)N=c2sc3ccccc3n2C(C(=O)O)c2ccccc2)cc1 (stereo not drawn) [Example 152],22.7
